Experiments:
[1] = Cytotoxicity against human MT4 cells after 5 days by XTT assay; type: cell-based
Protease = Protease (Human immunodeficiency virus 1, UniProt Q9YQ12); experiment: Inhibition of HIV1 protease expressed in Escherichia coli using DABCYL-gamma-Abu-Ser-Gln-ASN-Tyr-Pro-Ile-Val-Gln-EDANS as substrate after 20 mins by fluorescence assay
[2] = system: Human immunodeficiency virus; experiment: Antiviral activity against HIV infected in human MT4 cells by XTT assay; type: functional, organism-based; conditions: Human immunodeficiency virus 1, MT4
[3] = Intrinsic clearance in human liver microsomes after 30 mins by LC-MS/MS analysis; type: ADME; conditions: read-out: CLH
[4] = Apparent permeability from apical to basolateral side in human Caco2 cells at 10 uM after 60 mins; type: ADME, cell-based; conditions: Caco-2
[5] = Intrinsic clearance in human liver microsomes after 0.5 to 30 mins by LC-MS/MS analysis; type: ADME; conditions: read-out: CLH
[6] = Intrinsic clearance in human liver microsomes at 2 uM after 10 to 30 mins by LC-MS/MS analysis; type: ADME; conditions: read-out: CLH
[7] = system: Human immunodeficiency virus 1; experiment: Antiviral activity against HIV1 RF infected in human MT2 cells after 4 to 7 days by ELISA; type: functional, organism-based; conditions: Human immunodeficiency virus 1, RF
[8] = Apparent permeability from apical to basolateral side in human Caco2 cells at 10 uM after 30 to 120 mins; type: ADME, cell-based; conditions: Caco-2

Protease, sequence (Q9YQ12 whole entry): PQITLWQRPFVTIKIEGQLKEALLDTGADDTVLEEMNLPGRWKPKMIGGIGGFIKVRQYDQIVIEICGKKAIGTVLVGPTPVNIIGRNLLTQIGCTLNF

SMILES	Ki (Protease) [nM]	microsomal CLint [3] [µL/min/mg]	Papp A→B at 1 h, 10 µM [4] [×10⁻⁶ cm/s]	CC50 at 120 h [1] [nM]	EC50 [2] [nM]	microsomal CLint [5] [µL/min/mg]	microsomal CLint at 2 µM [6] [µL/min/mg]	EC50 [7] [nM]	Papp A→B at 10 µM [8] [×10⁻⁶ cm/s]
CNC(=O)[C@@H](NC(=O)[C@@](O)(CCCN(Cc1ccc(C#Cc2ccncc2)cc1)NC(=O)[C@@H](NC(=O)OC)C(C)(C)C)Cc1ccccc1)C(C)(C)C	6.6			> 50000	8900				
CNC(=O)[C@@H](NC(=O)[C@@](O)(CCCN(Cc1ccc(-c2ccncc2)cc1)NC(=O)[C@@H](NC(=O)OC)C(C)(C)C)Cc1ccccc1)C(C)(C)C	3.5	20	1.9	> 50000	1100				
COC(=O)N[C@H](C(=O)NN(CCC[C@@](O)(Cc1ccccc1)C(=O)N[C@H]1c2ccccc2C[C@H]1O)Cc1ccc(-c2ccncc2)cc1)C(C)(C)C					170				
CNC(=O)[C@@H](NC(=O)[C@@](O)(CCCN(Cc1ccc(C#Cc2cccnc2)cc1)NC(=O)[C@@H](NC(=O)OC)C(C)(C)C)Cc1ccccc1)C(C)(C)C	3.4	> 300	6.1	> 50000	2100				
CNC(=O)[C@@H](NC(=O)[C@@](O)(CCCN(Cc1ccc(-c2ccc3c(c2)OCO3)cc1)NC(=O)[C@@H](NC(=O)OC)C(C)(C)C)Cc1ccccc1)C(C)(C)C	4.8			> 50000	1200				
COC(=O)N[C@H](C(=O)N[C@@H](Cc1ccccc1)[C@@H](O)CN(Cc1ccc(-c2ccccn2)cc1)NC(=O)[C@@H](NC(=O)OC)C(C)(C)C)C(C)(C)C [ATAZANAVIR]						140	90	3.9	5.3
CNC(=O)[C@@H](NC(=O)[C@@](CCCN(Cc1ccc(Br)cc1)NC(=O)[C@@H](NC(=O)OC)C(C)(C)C)(Cc1ccccc1)O[Si](C)(C)C(C)(C)C)C(C)(C)C	2700			> 10000	> 10000				
CNC(=O)[C@@H](NC(=O)[C@@](O)(CCCN(Cc1ccc(C#Cc2ccccn2)cc1)NC(=O)[C@@H](NC(=O)OC)C(C)(C)C)Cc1ccccc1)C(C)(C)C	7			> 50000	1200				

More lines, main results first:

Ki (Protease) [nM]	microsomal CLint [3] [µL/min/mg]	Papp A→B at 1 h, 10 µM [4] [×10⁻⁶ cm/s]	SMILES	CC50 at 120 h [1] [nM]	EC50 [2] [nM]	microsomal CLint [5] [µL/min/mg]	microsomal CLint at 2 µM [6] [µL/min/mg]	EC50 [7] [nM]	Papp A→B at 10 µM [8] [×10⁻⁶ cm/s]
3.1	63	< 1	CNC(=O)[C@@H](NC(=O)[C@@](O)(CCCN(Cc1ccc(-c2cccnc2)cc1)NC(=O)[C@@H](NC(=O)OC)C(C)(C)C)Cc1ccccc1)C(C)(C)C	> 50000	1000				
170			CNC(=O)[C@H](Cc1ccccc1)NC(=O)[C@@](O)(CCCN(Cc1ccc(Br)cc1)NC(=O)[C@@H](NC(=O)OC)C(C)(C)C)Cc1ccccc1	> 10000	8200				
3.6			CNC(=O)[C@@H](NC(=O)[C@@](O)(CCCN(Cc1ccc(-c2ccsc2)cc1)NC(=O)[C@@H](NC(=O)OC)C(C)(C)C)Cc1ccccc1)C(C)(C)C	> 50000	1000				
6.2	180	4.6	CNC(=O)[C@@H](NC(=O)[C@@](O)(CCCN(Cc1ccc(Br)cc1)NC(=O)[C@@H](NC(=O)OC)C(C)(C)C)Cc1ccccc1)C(C)(C)C	> 10000	2000				
3.5			CNC(=O)[C@@H](NC(=O)[C@@](O)(CCCN(Cc1ccc(-c2nccs2)cc1)NC(=O)[C@@H](NC(=O)OC)C(C)(C)C)Cc1ccccc1)C(C)(C)C	> 50000	3700				
18			CNC(=O)[C@H](C)NC(=O)[C@@](O)(CCCN(Cc1ccc(Br)cc1)NC(=O)[C@@H](NC(=O)OC)C(C)(C)C)Cc1ccccc1	> 10000	2600				
> 5000			CNC(=O)[C@@H](NC(=O)[C@](O)(CCCN(Cc1ccc(Br)cc1)NC(=O)[C@@H](NC(=O)OC)C(C)(C)C)Cc1ccccc1)C(C)(C)C	> 10000	> 10000				
65			CNC(=O)[C@H](CC(C)C)NC(=O)[C@@](O)(CCCN(Cc1ccc(Br)cc1)NC(=O)[C@@H](NC(=O)OC)C(C)(C)C)Cc1ccccc1	> 10000	> 10000				
2.7			CNC(=O)[C@@H](NC(=O)[C@@](O)(CCCN(Cc1ccc(Br)cc1)NC(=O)[C@@H](NC(=O)OC)C(C)(C)C)Cc1ccccc1)C(C)C	> 10000					
6.3			CNC(=O)[C@@H](NC(=O)[C@@](O)(CCCN(Cc1ccc(-c2ccccn2)cc1)NC(=O)[C@@H](NC(=O)OC)C(C)(C)C)Cc1ccccc1)C(C)(C)C	> 50000	4900				
4.6	> 300	21	CNC(=O)[C@@H](NC(=O)[C@@](O)(CCCN(Cc1ccc(-c2ccccc2)cc1)NC(=O)[C@@H](NC(=O)OC)C(C)(C)C)Cc1ccccc1)C(C)(C)C	> 50000	1000				
130			COC(=O)N[C@H](C(=O)NN(CCC[C@@](O)(Cc1ccccc1)C(=O)N[C@H](CO)C(C)(C)C)Cc1ccc(Br)cc1)C(C)(C)C	> 10000	> 10000				
